The values below come from patent US20250231185A1, “Coronavirus T Cell Epitopes, Megapools and Uses Thereof” (La Jolla Institute for Immunology, priority 2021, published 2025).

One assay concerns CD4+ T cells. The note with it: cited from earlier work; for Allele(s): HLA class II allele(s) identified as MHC restriction elements of the CD4 epitope; for Restriction: T cell subset (CD4 or CD8) recognizing the SARS-CoV-2 epitope; for Dominant: SARS-CoV-2-derived CD4 epitopes, Yes = recognized by 3 or more donors/different studies.
For assay [1], the system named is CD8+ T cells. The note with it: cited from earlier work; for Restriction: SARS-CoV-2 Ag S, T cell type recognizing the epitope.
In assay [2] the test system is CD8+ T cells. Put plainly: Meta-analysis of published SARS-CoV-2 CD8 T cell epitope data curated in the IEDB (25 studies). It is filed as cell-based, human. The note with it: for Dominant: SARS-CoV-2 Ag S, CD8 epitopes, dominant = recognized by 3 or more donors/different studies.

“Also recorded” adds a separate entry of the source. Where only a bound is given, the exact number is not on record here.

Turning to 1 (SEETGTLIVNSVLLF) [compound 1], in the assay on CD4+ T cells, the “Allele(s)” value is on record as “DQB1*03:01” and the Restriction result is reported as “CD4”.

For the substance 2 (FLLVTLAILTALRLC) [compound 2], in the assay on CD4+ T cells, the Restriction entry is given as “CD4”.

Regarding 3 (LAILTALRLCAYCCN) [compound 3], in the assay on CD4+ T cells, the “Allele(s)” value was “DRB1*01:01, DRB1*11:01” and the Restriction result is given as “CD4”.

Regarding 4 (FYVYSRVKNLNSSRV) [compound 4], in the assay with CD4+ T cells, the Dominant entry is listed as “Yes (more dominant epitopes are defined by being recognized by 3 or more donors/different studies)” and the Restriction entry is reported as “CD4”.

As to 5 (EELKKLLEQWNLVIG) [compound 5], in the assay on CD4+ T cells, the “Allele(s)” value is “DQB1*05:01, DQB1*05:02” and the Restriction entry is on record as “CD4”.

6 (LLEQWNLVIGFLFLT) [compound 6]: in the assay with CD4+ T cells, the “Allele(s)” value was “DQB1*02:01, DQB1*05:03” and the Restriction entry is “CD4”.

Take 7 (NLVIGFLFLTWICLL) [compound 7]: in the assay on CD4+ T cells, the “Allele(s)” value is recorded as “DQB1*05:01, DRB1*01:02” and the Restriction entry is given as “CD4”.

For the substance 8 (FLFLTWICLLQFAYA) [compound 8], in the assay on CD4+ T cells, the “Allele(s)” value is given as “DQB1*05:01, DQB1*05:03,; also recorded: DRB1*01:02” and the Restriction result was “CD4”.

For 9 (WICLLQFAYANRNRF) [compound 9], in the assay with CD4+ T cells, the “Allele(s)” value is reported as “DQB1*05:03, DRB1*03:01,; also recorded: DRB1*14:01” and the Restriction result is given as “CD4”.

With 10 (QFAYANRNRFLYIIK) [compound 10], in the assay on CD4+ T cells, the “Allele(s)” value is “DRB1*14:01”, the Dominant entry is listed as “Yes (more dominant epitopes are defined by being recognized by 3 or more donors/different studies)” and the Restriction entry is on record as “CD4”.

As for 11 (NRNRFLYIIKLIFLW) [compound 11], in the assay with CD4+ T cells, the “Allele(s)” value was “DQB1*02:01, DQB1*05:03,; also recorded: DRB1*03:01, DRB1*12:01” and the Restriction result is “CD4”.

As for 12 (LYIIKLIFLWLLWPV) [compound 12], in the assay with CD4+ T cells, the “Allele(s)” value was “DQB1*02:01, DRB1*12:01” and the Restriction result is recorded as “CD4”.

For the substance 13 (LIFLWLLWPVTLACF) [compound 13], in the assay with CD4+ T cells, the “Allele(s)” value is given as “DQB1*05:01, DQB1*05:03,; also recorded: DRB1*01:02” and the Restriction entry was “CD4”.

For 14 (LLWPVTLACFVLAAV) [compound 14], in the assay on CD4+ T cells, the “Allele(s)” value is “DQB1*05:01, DQB1*05:03,; also recorded: DQB1*06:03” and the Restriction result is recorded as “CD4”.

Turning to 15 (VLAAVYRINWITGGI) [compound 15], in the assay on CD4+ T cells, the “Allele(s)” value was “DQB1*05:01, DQB1*05:03,; also recorded: DRB1*12:02, DRB1*14:01”; the Dominant result was “Yes (more dominant epitopes are defined by being recognized by 3 or more donors/different studies)”; the Restriction entry was “CD4”.

Turning to 16 (YRINWITGGIAIAMA) [compound 16], in the assay with CD4+ T cells, the “Allele(s)” value is reported as “DQB1*02:02, DQB1*03:01,; also recorded: DQB1*05:01, DQB1*05:02,; also recorded: DQB1*05:03, DQB1*06:02,; also recorded: DQB1*06:03, DRB1*07:01,; also recorded: DRB1*10:01, DRB1*12:01,; also recorded: DRB1*13:01, DRB1*14:01,; also recorded: DRB1*15:01, DRB1*16:01”; the Dominant result is given as “Yes (more dominant epitopes are defined by being recognized by 3 or more donors/different studies)”; the Restriction result is on record as “CD4”.

In the case of 17 (ITGGIAIAMACLVGL) [compound 17], in the assay on CD4+ T cells, the “Allele(s)” value is “DQB1*03:01” and the Restriction result is “CD4”.

As for 18 (AIAMACLVGLMWLSY) [compound 18], the Restriction result in the assay with CD4+ T cells was “CD4”.

Regarding 19 (CLVGLMWLSYFIASF) [compound 19], in the assay on CD4+ T cells, the “Allele(s)” value is “DQB1*05:01, DQB1*05:03,; also recorded: DRB1*12:01, DRB1*12:02”; the Dominant entry is “Yes (more dominant epitopes are defined by being recognized by 3 or more donors/different studies)”; the Restriction entry is “CD4”.

Consider 20 (MWLSYFIASFRLFAR) [compound 20], for which, in the assay with CD4+ T cells, the “Allele(s)” value is reported as “DQB1*02:01, DQB1*05:01,; also recorded: DQB1*05:02, DQB1*05:03,; also recorded: DRB1*03:01, DRB1*14:01,; also recorded: DRB1*14:06, DRB1*16:01,; also recorded: DRB1*16:02”; the Dominant result was “Yes (more dominant epitopes are defined by being recognized by 3 or more donors/different studies)”; the Restriction result was “CD4”.

For 21 (FIASFRLFARTRSMW) [compound 21], in the assay on CD4+ T cells, the “Allele(s)” value was “DQB1*05:03, DRB1*03:01,; also recorded: DRB1*14:01” and the Restriction entry was “CD4”.

In the case of 22 (RLFARTRSMWSFNPE) [compound 22], in the assay on CD4+ T cells, the “Allele(s)” value is recorded as “DQB1*05:03, DRB1*14:01” and the Restriction result is “CD4”.

Turning to 23 (TRSMWSFNPETNILL) [compound 23], in the assay on CD4+ T cells, the “Allele(s)” value is listed as “DQB1*05:03, DRB1*01:02” and the Restriction entry is reported as “CD4”.

24 (SFNPETNILLNVPLH) [compound 24]: in the assay with CD4+ T cells, the “Allele(s)” value is reported as “DRB1*01:02” and the Restriction result is “CD4”.

On to 25 (TNILLNVPLHGTILT) [compound 25], for which, in the assay on CD4+ T cells, the “Allele(s)” value is reported as “DRB1*10:01, DRB1*12:02,; also recorded: DRB1*14:01, DRB1*14:06,; also recorded: DRB1*15:01, DRB1*16:02”; the Dominant result is on record as “Yes (more dominant epitopes are defined by being recognized by 3 or more donors/different studies)”; the Restriction entry is “CD4”.

Regarding 26 (NVPLHGTILTRPLLE) [compound 26], the Restriction result in the assay with CD4+ T cells is given as “CD4”.

Regarding 27 (GTILTRPLLESELVI) [compound 27], in the assay on CD4+ T cells, the “Allele(s)” value is reported as “DRB1*13:01” and the Restriction entry is given as “CD4”.

Turning to 28 (RPLLESELVIGAVIL) [compound 28], in the assay on CD4+ T cells, the “Allele(s)” value is “DQB1*02:02” and the Restriction entry is recorded as “CD4”.

Regarding 29 (SELVIGAVILRGHLR) [compound 29], in the assay with CD4+ T cells, the “Allele(s)” value is given as “DQB1*06:02, DQB1*06:03,; also recorded: DRB1*01:02, DRB1*13:01,; also recorded: DRB1*14:01, DRB1*15:01,; also recorded: DRB1*16:01”; the Dominant entry is “Yes (more dominant epitopes are defined by being recognized by 3 or more donors/different studies)”; the Restriction result is given as “CD4”.

Regarding 30 (GAVILRGHLRIAGHHLGR) [compound 30], in the assay with CD4+ T cells, the Dominant entry is “Yes (more dominant epitopes are defined by being recognized by 3 or more donors/different studies)” and the Restriction entry is “CD4”.

31 (GAVILRGHLRIAGHH) [compound 31]: in the assay on CD4+ T cells, the “Allele(s)” value is given as “DRB1*13:01, DRB1*15:01” and the Restriction entry is “CD4”.

As to 32 (LRGHLRIAGHHLGRC) [compound 32], in the assay with CD4+ T cells, the “Allele(s)” value was “DRB1*11:01, DRB1*11:04”; the Dominant entry is listed as “Yes (more dominant epitopes are defined by being recognized by 3 or more donors/different studies)”; the Restriction result is given as “CD4”.

On to 33 (RGHLRIAGHHLGRCD) [compound 33], for which, in the assay on CD4+ T cells, the “Allele(s)” value is reported as “DRB1*07:01, DRB1*13:01,; also recorded: DRB1*14:01, DRB1*15:01”; the Dominant result is listed as “Yes (more dominant epitopes are defined by being recognized by 3 or more donors/different studies)”; the Restriction entry was “CD4”.

For 34 (LRIAGHHLGRCDIKD) [compound 34], the Restriction result with CD4+ T cells is on record as “CD4”.

Regarding 35 (IAGHHLGRCDIKDLP) [compound 35], in the assay on CD4+ T cells, the Dominant result was “Yes (more dominant epitopes are defined by being recognized by 3 or more donors/different studies)” and the Restriction result is listed as “CD4”.

Take 1425 (FPQSAPHGVVF) [compound 1425]: the Restriction result in the assay on CD8+ T cells [1] is on record as “CD8”. The Dominant result in the assay with CD8+ T cells [2] is recorded as “Yes (more dominant epitopes are defined by being recognized by 3 or more donors/different studies)”.

Consider 1428 (APHGVVFLHV) [compound 1428], for which the Restriction result in the assay with CD8+ T cells [1] is on record as “CD8”. The Dominant result in the assay with CD8+ T cells [2] is reported as “Yes (more dominant epitopes are defined by being recognized by 3 or more donors/different studies)”.

Turning to 1431 (VVFLHVTYV) [compound 1431], the Restriction result in the assay with CD8+ T cells [1] is listed as “CD8”. Besides, in the assay on CD8+ T cells [2], the Dominant result is “Yes (more dominant epitopes are defined by being recognized by 3 or more donors/different studies)”.

With 1442 (GTHWFVTQR) [compound 1442], in the assay with CD8+ T cells [1], the Restriction entry is “CD8”. Further, in the assay with CD8+ T cells [2], the Dominant entry was “Yes (more dominant epitopes are defined by being recognized by 3 or more donors/different studies)”.

For 1452 (RLNEVAKNL) [compound 1452], in the assay with CD8+ T cells [1], the Restriction result was “CD8”. Also, the Dominant entry in the assay on CD8+ T cells [2] is on record as “Yes (more dominant epitopes are defined by being recognized by 3 or more donors/different studies)”.

With 1453 (NLNESLIDL) [compound 1453], in the assay on CD8+ T cells [1], the Restriction result is “CD8”. In addition, in the assay with CD8+ T cells [2], the Dominant entry was “Yes (more dominant epitopes are defined by being recognized by 3 or more donors/different studies)”.

Turning to 1458 (YEQYIKWPWYI) [compound 1458], the Restriction entry in the assay with CD8+ T cells [1] is given as “CD8”. Besides, the Dominant entry in the assay with CD8+ T cells [2] is on record as “Yes (more dominant epitopes are defined by being recognized by 3 or more donors/different studies)”.

In the case of 1461 (QYIKWPWYI) [compound 1461], in the assay with CD8+ T cells [1], the Restriction entry is listed as “CD8”. Also, the Dominant entry in the assay with CD8+ T cells [2] is on record as “Yes (more dominant epitopes are defined by being recognized by 3 or more donors/different studies)”.

Consider 1462 (KWPWYIWLGF) [compound 1462], for which, in the assay with CD8+ T cells [1], the Restriction entry is “CD8”. Moreover, in the assay with CD8+ T cells [2], the Dominant entry is reported as “Yes (more dominant epitopes are defined by being recognized by 3 or more donors/different studies)”.

In the case of 1466 (SEPVLKGVKL) [compound 1466], the Restriction result with CD8+ T cells [1] is on record as “CD8”. In the assay with CD8+ T cells [2], the Dominant entry is listed as “Yes (more dominant epitopes are defined by being recognized by 3 or more donors/different studies)”.

Take YLQPRTFLL [SEQ ID NO: 1481]: the recognized in subjects in the assay with CD8+ T cells [1] (Ferretti et al., 67% of the subjects tested) is listed as no less than 3 subjects. Moreover, the IFN-f response entry in the assay on CD8+ T cells [1] (Habel et al., 14 peptides screened, HLA-A*02:01) is “strongest”. In addition, the “detected in HLA-A2+ individuals” value in the assay with CD8+ T cells [1] (Nielsen study, HLA-A*02:01) was 81%. In addition, the “responses detected in patients” value in the assay on CD8+ T cells [1] (Rha et al., 37 of 112 and 2 of 40 patients) was 33%. For the same substance, the “MHC class I multimer+ cells in unexposed subjects” value in the assay with CD8+ T cells [1] (Rha et al.) is “not detected”. In addition, the dominance as reported entry in the assay on CD8+ T cells [1] (Sahin et al.) was “most dominant epitope”. In addition, the “found to be positive in independent studies” value in the assay with CD8+ T cells [2] (overall, all curated studies) was determined as 11 independent studies.
